What all share (test): ASTM D4445-10 fungal growth on dip-treated Radiata pine specimens
Holding throughout (type): cell-based
What all share (details): rating 0 (No Growth) to 5 (Complete Growth), one month, 28° C.

Test [1] relates to Aureobasidium pullulans (ATCC #9348). How it is done:
(§1) Radiata pine lumber was machined to specimens with size of 7 mm by 20 mm in cross section and 70 mm long. Solutions prepared as described above were used to treat the machined Radiata pine specimens. The treatment was carried out in a 600 mL beaker. Two unused test pieces were placed on the bottom of the beaker, and the specimens, four in a layer, were placed on the previous layers until all the treatment replicates were included. The specimens were held down with a finger bearing down on a watch glass and submerged in treating solution for 15 seconds. After 15 seconds, the beaker was drained but with specimens still held down, and then was tightly covered with a piece of plastic sheet to prevent drying and was stored overnight. Similarly, untreated control specimens were treated with water.
(§2) One day after treatment, duplicate wood specimens from the same treatment group were tested according to ASTM D4445-10 methodology. The wood specimens were checked for inhibition against sapstain fungi and molds Trichoderma pseudokoningii (ATCC #26801), Aureobasidium pullulans (ATCC #9348), and a mixture of Aspergillus niger (ATCC #6275) and Penicillium funiculosum (ATCC #11797). This method is described below:
(§3) (1) Placed duplicate wood specimens on top of polyester mesh and laid on a stack of four (4) filter paper squares (approximately 2 inches by 2.5 inches) presoaked in 5 mL sterile DI water.
(§4) (2) Prepared fungal mixture from freshly grown slants of each test organism.
(§5) (3) Added 2 mL of DI water and 0.1% Tween 20 to the slant and inverted to mix.
(§6) (4) Poured the concentrate into a total volume of 16 mL.
(§7) (5) Enumerated the stock via hemocytometer and adjusted to […] with additional DI water.
(§8) (6) Inoculated wood specimens via applying 0.25 mL of one of the three separate fungal suspensions to the top of the wood and distributing evenly on the surface with an L-spreader.
(§9) (7) Placed inoculated wood specimens in a humidity chamber for one month at 95% or larger relative humidity and 28° C.
(§10) (8) Rated wood specimens with a rating from “0” (No Growth) to “5” (Complete Growth).
as §1, with “treat” for “treat the”
(§11) One day after treatment, duplicate wood specimens from the same treatment group were tested according to ASTM D4445-10(2019) methodology. The wood specimens were checked for inhibition against sapstain fungi and molds Trichoderma pseudokoningii (ATCC #26801), Aureobasidium pullulans (ATCC #9348), and a mixture of Aspergillus niger (ATCC #6275) and Penicillium funiculosum (ATCC #11797). […]

The subject of test [2] is mixture of Aspergillus niger (ATCC #6275) and Penicillium funiculosum (ATCC #11797). The method, then: as §1, §2, §3, §4, §5, §6, §7, §8, §9, §10
as §1, with “treat” for “treat the”
as §11

The test system of test [3] is Trichoderma pseudokoningii (ATCC #26801). The method, then: as §1, §2, §3, §4, §5, §6, §7, §8, §9, §10
as §1, with “treat” for “treat the”
as §11

Where [4] appears, read: 2400 ppm treatment solution, Example 2, eight replicates.
Where [5] appears, read: 2400 ppm treatment solution, Example 3, ten replicates.
Setting [6] is: 4800 ppm treatment solution, Example 2, eight replicates.

This note sets out measurements from patent US20220161456A1, “S[…] PRESERVATIVE COMPOSITION COMPRISING POLYMERIC BETAINE AND CARBAMATE” (Troy Corporation, priority 2019, published 2022).

Regarding `CCCCNC(=O)OCC#CI` [IPBC, 3-iodo-2-propynyl butyl carbamate], the “Average Scoring A.p.” value is given as 0.0 in test [1] (setting [4]), 0 in test [1] (setting [5]) and 0.0 in test [1] (setting [6]). Besides, the “Average Scoring A.n. + P.f.” value in test [2] (setting [4]) came to 0.0; in test [2] (setting [5]), 2.1; in test [2] (setting [6]), 0.0. Further, the “Average Scoring T.p.” value in test [3] (setting [4]) was determined as 2.6; in test [3] (setting [5]) it was 1.7; in test [3] (setting [6]) it was 2.8.

Turning to “didecyl bis(hydroxyethyl) ammonium borate [DPAB]”, the “Average Scoring A.p.” value in test [1] (setting [4]) is 3.3; in test [1] (setting [5]), 3.6; in test [1] (setting [6]), 0.8. For the same molecule, the entries for the “Average Scoring A.n. + P.f.” value in test [2] (setting [4]), in test [2] (setting [5]) and in test [2] (setting [6]) were 5.0, 2 and 4.9, respectively. For the same molecule, the “Average Scoring T.p.” value amounted to 2.5 in test [3] (setting [4]), 2 in test [3] (setting [5]) and 2.0 in test [3] (setting [6]).
